Several values for one entry are separate records, joined by “and”; a condition that tells them apart may be missing. Equal entries are not always repeated.
What was measured:
Test in all cases: KINOMEscan competition binding
Details in all cases: compound 10.0 µM
[1] = target: AAK1 (human) (UniProt Q2M2I8)
[2] = target: ACVR1 (human) (UniProt Q04771)
[3] = target: ACVR2A (human) (UniProt P27037)
[4] = target: CAMK2D (human) (UniProt Q13557)
[5] = target: CAMK2G (human) (UniProt Q13555)
[6] = target: CDK19 (human) (UniProt Q9BWU1)
[7] = target: CSF1R (human) (UniProt P07333)
[8] = target: DDR2 (human) (UniProt Q16832)
[9] = target: EPHA2 (human) (UniProt P29317)
[10] = target: EPHA3 (human) (UniProt P29320)
[11] = target: EPHA6 (human) (UniProt Q9UF33)
[12] = target: EPHA7 (human) (UniProt Q15375)
[13] = target: EPHB2 (human) (UniProt P29323)
[14] = target: EPHB4 (human) (UniProt P54760)
[15] = target: HCK (human) (UniProt P08631)
[16] = target: IKBKE (human) (UniProt Q14164)
[17] = target: IRAK3 (human) (UniProt Q9Y616)
[18] = target: MAP3K4 (human) (UniProt Q9Y6R4)
[19] = target: MAP3K5 (human) (UniProt Q99683)
[20] = target: MAP3K7 (human) (UniProt O43318)
[21] = target: MAPK12 (human) (UniProt P53778)
[22] = target: MAPK13 (human) (UniProt O15264)
[23] = target: MAPK15 (human) (UniProt Q8TD08)
[24] = target: MAPK6 (human) (UniProt Q16659)
[25] = target: PAK1 (human) (UniProt Q13153)
[26] = target: PRKCE (human) (UniProt Q02156)
[27] = target: PTK2 (human) (UniProt Q05397)
[28] = target: PTK2B (human) (UniProt Q14289)
[29] = target: PTK6 (human) (UniProt Q13882)
[30] = target: RIOK1 (human) (UniProt Q9BRS2)
[31] = target: RIPK1 (human) (UniProt Q13546)
[32] = target: RPS6KA2 KD2 (human) (UniProt Q15349)
[33] = target: RPS6KA4 KD1 (human) (UniProt O75676)
[34] = target: RPS6KA4 KD2 (human) (UniProt O75676)
[35] = target: STK3 (human) (UniProt Q13188)
[36] = target: TGFBR2 (human) (UniProt P37173)
[37] = target: TLK1 (human) (UniProt Q9UKI8)
[38] = target: TTK (human) (UniProt P33981)
[39] = target: ULK1 (human) (UniProt O75385)
[40] = target: ZAP70 (human) (UniProt P43403)

Chain of MAP3K7 (human) (O43318 whole entry, looked up): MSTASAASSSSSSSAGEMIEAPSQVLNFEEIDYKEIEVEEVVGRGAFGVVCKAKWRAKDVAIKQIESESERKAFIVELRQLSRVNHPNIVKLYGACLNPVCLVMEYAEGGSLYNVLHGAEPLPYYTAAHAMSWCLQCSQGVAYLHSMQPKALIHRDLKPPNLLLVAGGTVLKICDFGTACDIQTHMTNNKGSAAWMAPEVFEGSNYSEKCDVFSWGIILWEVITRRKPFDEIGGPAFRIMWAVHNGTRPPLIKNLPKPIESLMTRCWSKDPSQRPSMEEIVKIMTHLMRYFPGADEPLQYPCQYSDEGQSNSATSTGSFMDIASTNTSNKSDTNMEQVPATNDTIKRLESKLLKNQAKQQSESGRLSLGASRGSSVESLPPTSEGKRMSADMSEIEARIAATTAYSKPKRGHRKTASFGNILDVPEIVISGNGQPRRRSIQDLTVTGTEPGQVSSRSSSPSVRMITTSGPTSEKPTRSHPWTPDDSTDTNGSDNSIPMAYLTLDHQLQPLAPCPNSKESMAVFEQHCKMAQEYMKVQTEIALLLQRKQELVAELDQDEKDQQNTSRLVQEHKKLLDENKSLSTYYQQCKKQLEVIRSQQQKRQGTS
Chain of DDR2 (human) (Q16832 whole entry, looked up): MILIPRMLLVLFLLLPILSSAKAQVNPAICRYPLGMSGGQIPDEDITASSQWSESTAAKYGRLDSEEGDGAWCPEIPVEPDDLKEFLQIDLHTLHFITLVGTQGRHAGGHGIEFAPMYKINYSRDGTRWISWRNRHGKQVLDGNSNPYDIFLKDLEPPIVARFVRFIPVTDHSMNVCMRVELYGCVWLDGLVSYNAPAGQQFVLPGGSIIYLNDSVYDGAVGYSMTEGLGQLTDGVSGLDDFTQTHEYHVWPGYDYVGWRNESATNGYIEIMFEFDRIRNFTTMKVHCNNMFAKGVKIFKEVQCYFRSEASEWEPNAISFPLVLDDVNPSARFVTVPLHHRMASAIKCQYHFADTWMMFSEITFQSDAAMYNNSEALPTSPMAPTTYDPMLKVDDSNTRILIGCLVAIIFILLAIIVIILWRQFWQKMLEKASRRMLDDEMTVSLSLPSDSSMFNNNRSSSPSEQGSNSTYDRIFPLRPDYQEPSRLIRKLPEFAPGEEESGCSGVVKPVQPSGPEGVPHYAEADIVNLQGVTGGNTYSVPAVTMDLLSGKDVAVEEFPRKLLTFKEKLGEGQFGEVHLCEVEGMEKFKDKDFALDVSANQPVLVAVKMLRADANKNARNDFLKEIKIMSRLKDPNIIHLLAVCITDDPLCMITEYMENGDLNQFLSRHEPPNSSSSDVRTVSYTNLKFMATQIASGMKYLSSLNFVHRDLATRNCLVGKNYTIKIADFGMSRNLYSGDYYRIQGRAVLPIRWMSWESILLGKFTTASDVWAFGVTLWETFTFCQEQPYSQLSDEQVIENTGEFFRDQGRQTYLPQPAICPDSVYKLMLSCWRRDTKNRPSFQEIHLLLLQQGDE
Chain of PRKCE (human) (Q02156 whole entry, looked up): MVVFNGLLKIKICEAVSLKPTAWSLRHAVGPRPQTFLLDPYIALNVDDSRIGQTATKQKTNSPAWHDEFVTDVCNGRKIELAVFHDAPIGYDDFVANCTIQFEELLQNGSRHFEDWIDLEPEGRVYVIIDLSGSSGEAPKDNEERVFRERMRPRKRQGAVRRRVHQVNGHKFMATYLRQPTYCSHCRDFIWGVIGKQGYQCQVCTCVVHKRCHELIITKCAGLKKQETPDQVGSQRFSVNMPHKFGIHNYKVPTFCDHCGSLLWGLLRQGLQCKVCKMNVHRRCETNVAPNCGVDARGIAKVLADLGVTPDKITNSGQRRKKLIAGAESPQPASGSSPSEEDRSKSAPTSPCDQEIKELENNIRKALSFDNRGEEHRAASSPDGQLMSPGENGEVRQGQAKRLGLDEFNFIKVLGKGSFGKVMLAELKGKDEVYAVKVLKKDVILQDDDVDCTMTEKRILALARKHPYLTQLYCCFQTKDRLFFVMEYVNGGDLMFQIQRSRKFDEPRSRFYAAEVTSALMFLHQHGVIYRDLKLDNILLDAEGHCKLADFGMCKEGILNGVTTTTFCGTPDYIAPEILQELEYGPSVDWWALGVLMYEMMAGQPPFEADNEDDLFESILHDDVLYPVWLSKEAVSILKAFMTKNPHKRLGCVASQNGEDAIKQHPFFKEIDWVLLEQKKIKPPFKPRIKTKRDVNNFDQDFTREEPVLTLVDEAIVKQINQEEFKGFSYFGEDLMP
Chain of MAP3K5 (human) (Q99683 whole entry, looked up): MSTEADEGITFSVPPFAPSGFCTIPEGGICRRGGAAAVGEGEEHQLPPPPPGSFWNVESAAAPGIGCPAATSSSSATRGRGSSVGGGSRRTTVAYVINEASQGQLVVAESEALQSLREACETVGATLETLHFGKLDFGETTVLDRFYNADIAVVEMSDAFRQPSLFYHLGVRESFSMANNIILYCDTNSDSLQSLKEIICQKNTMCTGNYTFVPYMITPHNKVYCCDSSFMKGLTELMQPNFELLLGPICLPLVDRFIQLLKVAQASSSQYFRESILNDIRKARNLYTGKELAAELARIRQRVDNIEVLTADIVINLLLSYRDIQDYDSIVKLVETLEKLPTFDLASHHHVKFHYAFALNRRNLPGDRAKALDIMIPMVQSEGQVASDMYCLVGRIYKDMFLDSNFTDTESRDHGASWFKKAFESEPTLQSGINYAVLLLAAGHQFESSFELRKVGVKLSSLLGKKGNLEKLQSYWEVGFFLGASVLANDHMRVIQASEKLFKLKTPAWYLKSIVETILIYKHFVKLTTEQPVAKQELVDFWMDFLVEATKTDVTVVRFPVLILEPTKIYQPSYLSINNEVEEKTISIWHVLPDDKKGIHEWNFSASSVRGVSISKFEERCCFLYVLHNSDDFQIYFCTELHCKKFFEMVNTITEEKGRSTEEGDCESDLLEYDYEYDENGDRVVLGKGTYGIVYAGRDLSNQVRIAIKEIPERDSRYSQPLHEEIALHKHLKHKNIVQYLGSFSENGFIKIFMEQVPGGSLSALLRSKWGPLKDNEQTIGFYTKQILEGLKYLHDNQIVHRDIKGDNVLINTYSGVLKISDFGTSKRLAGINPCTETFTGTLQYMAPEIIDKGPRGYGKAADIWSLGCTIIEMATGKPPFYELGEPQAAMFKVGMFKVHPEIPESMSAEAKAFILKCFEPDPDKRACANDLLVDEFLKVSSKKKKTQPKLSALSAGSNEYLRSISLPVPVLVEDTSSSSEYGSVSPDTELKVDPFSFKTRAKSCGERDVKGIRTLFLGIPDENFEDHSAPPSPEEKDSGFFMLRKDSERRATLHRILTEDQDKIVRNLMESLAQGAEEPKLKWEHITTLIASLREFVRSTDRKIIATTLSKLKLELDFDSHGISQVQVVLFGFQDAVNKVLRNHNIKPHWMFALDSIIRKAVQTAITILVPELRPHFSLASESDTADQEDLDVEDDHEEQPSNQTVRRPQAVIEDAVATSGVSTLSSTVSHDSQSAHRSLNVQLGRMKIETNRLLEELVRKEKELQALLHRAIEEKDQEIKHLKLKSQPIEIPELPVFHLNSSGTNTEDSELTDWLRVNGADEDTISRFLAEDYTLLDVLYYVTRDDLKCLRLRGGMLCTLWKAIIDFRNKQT
Chain of RIPK1 (human) (Q13546 whole entry, looked up): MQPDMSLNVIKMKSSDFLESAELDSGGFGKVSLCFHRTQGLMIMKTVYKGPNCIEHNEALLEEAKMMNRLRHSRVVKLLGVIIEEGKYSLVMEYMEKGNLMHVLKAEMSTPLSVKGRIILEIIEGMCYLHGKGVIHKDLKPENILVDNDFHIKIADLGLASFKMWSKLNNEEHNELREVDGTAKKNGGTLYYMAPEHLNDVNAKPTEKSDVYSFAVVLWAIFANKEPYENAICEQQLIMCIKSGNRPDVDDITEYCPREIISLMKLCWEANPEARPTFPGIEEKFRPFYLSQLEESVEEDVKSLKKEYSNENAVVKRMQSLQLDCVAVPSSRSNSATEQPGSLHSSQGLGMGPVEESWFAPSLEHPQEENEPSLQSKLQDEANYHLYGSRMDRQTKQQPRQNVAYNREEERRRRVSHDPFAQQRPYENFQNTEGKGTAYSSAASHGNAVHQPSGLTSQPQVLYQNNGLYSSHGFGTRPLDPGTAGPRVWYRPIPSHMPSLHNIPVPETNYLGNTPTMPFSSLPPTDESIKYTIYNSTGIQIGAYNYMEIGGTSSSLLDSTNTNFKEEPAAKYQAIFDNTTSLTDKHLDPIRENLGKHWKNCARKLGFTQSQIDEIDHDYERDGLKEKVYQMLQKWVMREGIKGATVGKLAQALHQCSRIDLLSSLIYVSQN
Chain of CAMK2G (human) (Q13555 whole entry, looked up): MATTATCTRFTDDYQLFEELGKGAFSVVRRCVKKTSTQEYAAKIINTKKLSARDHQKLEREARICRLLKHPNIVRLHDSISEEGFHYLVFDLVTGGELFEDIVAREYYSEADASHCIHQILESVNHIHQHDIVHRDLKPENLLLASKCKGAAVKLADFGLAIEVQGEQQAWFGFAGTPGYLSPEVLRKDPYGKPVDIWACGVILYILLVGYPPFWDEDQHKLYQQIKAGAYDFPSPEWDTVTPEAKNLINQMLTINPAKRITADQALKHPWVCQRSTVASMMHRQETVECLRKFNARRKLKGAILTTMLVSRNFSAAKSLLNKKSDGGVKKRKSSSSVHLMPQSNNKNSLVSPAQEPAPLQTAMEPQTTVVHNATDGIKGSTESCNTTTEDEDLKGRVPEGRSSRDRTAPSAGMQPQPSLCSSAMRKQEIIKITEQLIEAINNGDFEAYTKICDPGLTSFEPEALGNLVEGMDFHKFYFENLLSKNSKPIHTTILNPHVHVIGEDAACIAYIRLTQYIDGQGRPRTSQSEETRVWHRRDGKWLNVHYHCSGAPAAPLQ

SMILES	kinase still bound, per cent of control [1] [%]	kinase still bound, per cent of control [2] [%]	kinase still bound, per cent of control [3] [%]	kinase still bound, per cent of control [4] [%]	kinase still bound, per cent of control [5] [%]	kinase still bound, per cent of control [6] [%]	kinase still bound, per cent of control [7]	kinase still bound, per cent of control [8] [%]	kinase still bound, per cent of control [9] [%]	kinase still bound, per cent of control [10] [%]	kinase still bound, per cent of control [11] [%]	kinase still bound, per cent of control [12] [%]	kinase still bound, per cent of control [13] [%]	kinase still bound, per cent of control [14] [%]	kinase still bound, per cent of control [15] [%]	kinase still bound, per cent of control [16] [%]	kinase still bound, per cent of control [17] [%]	kinase still bound, per cent of control [18] [%]	kinase still bound, per cent of control [19] [%]	kinase still bound, per cent of control [20] [%]	other results
O=C(NOC[C@H](O)CO)c1ccc(F)c(F)c1Nc1ccc(I)cc1F	100	76	80	100	100	100	100% and 80%	100	88	100	94	94	73	100	100	100	100	100	91	75	kinase still bound, per cent of control [21]: 100%; kinase still bound, per cent of control [22]: 6.1%; kinase still bound, per cent of control [23]: 100%; kinase still bound, per cent of control [24]: 83%; kinase still bound, per cent of control [25]: 100%; kinase still bound, per cent of control [26]: 100%; kinase still bound, per cent of control [27]: 85%; kinase still bound, per cent of control [28]: 98%; kinase still bound, per cent of control [29]: 46%; kinase still bound, per cent of control [30]: 95%; kinase still bound, per cent of control [31]: 85%; kinase still bound, per cent of control [32]: 92%; kinase still bound, per cent of control [33]: 86%; kinase still bound, per cent of control [34]: 100%; kinase still bound, per cent of control [35]: 90%; kinase still bound, per cent of control [36]: 100%; kinase still bound, per cent of control [37]: 89%; kinase still bound, per cent of control [38]: 100%; kinase still bound, per cent of control [39]: 100%; kinase still bound, per cent of control [40]: 89%
C[C@@H](Oc1cc(-n2cnc3ccc(CN4CCN(C)CC4)cc32)sc1C(N)=O)c1ccccc1C(F)(F)F	40	100	100	7.3	15	100	77%	77	92	100	92	83	99	100	100	58	38	100	100	48	kinase still bound, per cent of control [21]: 95%; kinase still bound, per cent of control [22]: 100%; kinase still bound, per cent of control [23]: 52%; kinase still bound, per cent of control [24]: 100%; kinase still bound, per cent of control [25]: 100%; kinase still bound, per cent of control [26]: 3.9%; kinase still bound, per cent of control [27]: 99%; kinase still bound, per cent of control [28]: 82%; kinase still bound, per cent of control [29]: 93%; kinase still bound, per cent of control [30]: 4.4%; kinase still bound, per cent of control [31]: 100%; kinase still bound, per cent of control [32]: 74%; kinase still bound, per cent of control [33]: 68%; kinase still bound, per cent of control [34]: 0.55%; kinase still bound, per cent of control [35]: 74%; kinase still bound, per cent of control [36]: 100%; kinase still bound, per cent of control [37]: 71%; kinase still bound, per cent of control [38]: 95%; kinase still bound, per cent of control [39]: 41%; kinase still bound, per cent of control [40]: 69%
C=CC(=O)Nc1cc(NC(=O)c2ccc(C)c(NC(=O)c3ccno3)c2)cc(C(F)(F)F)c1	77	84	100	83	89	96	38%	40	28	9.8	93	77	77	87	60	100	100	100	100	98	kinase still bound, per cent of control [21]: 96%; kinase still bound, per cent of control [22]: 90%; kinase still bound, per cent of control [23]: 100%; kinase still bound, per cent of control [24]: 100%; kinase still bound, per cent of control [25]: 79%; kinase still bound, per cent of control [26]: 100%; kinase still bound, per cent of control [27]: 91%; kinase still bound, per cent of control [28]: 91%; kinase still bound, per cent of control [29]: 100%; kinase still bound, per cent of control [30]: 100%; kinase still bound, per cent of control [31]: 100%; kinase still bound, per cent of control [32]: 100%; kinase still bound, per cent of control [33]: 100%; kinase still bound, per cent of control [34]: 94%; kinase still bound, per cent of control [35]: 100%; kinase still bound, per cent of control [36]: 93%; kinase still bound, per cent of control [37]: 100%; kinase still bound, per cent of control [38]: 77%; kinase still bound, per cent of control [39]: 100%; kinase still bound, per cent of control [40]: 54%
